Assay results as given in PMC9537541, “Synthesis and anticancer activity of new benzensulfonamides incorporating s-triazines as cyclic linkers for inhibition of carbonic anhydrase IX” (Scientific Reports, 2022).
Structures can show the parent of a compound that is named as a salt.

Assays:
hCA I = biological target: T1, hCA I (Homo sapiens, UniProt P00915); assay: stopped-flow CO2 hydrase assay, hCA I; format: biochemical; conditions: stopped flow technique, mean from 3 different assays
T1 construct: made in house
Method: (§1) Target compounds of series (A) and (B) were screened as inhibitors concerning the physiologically relevant hCAs; cytosolic isoforms (hCA I and II) in addition to the transmembrane tumor related isoforms (hCA IX and XII) via a stopped-flow assay of carbonic anhydrase catalyzed CO2 hydration. Acetazolamide (AAZ), CA I drug, was also incorporated in the assays as a standard drug. […] Four CA isoforms inhibition activity was measured by assaying CA catalyzed CO2 hydration via an applied photophysics stopped-flow instrument. PRISM 3 and the Cheng-prusoff equation were used to determine the inhibition constant by non-linear least square methods as reported, and represent the mean from three different determination at least. All tested carbonic anhydrase isoforms were recombinant proteins prepared in lab as described earlier,[57].

hCA II = biological target: T2, hCA II (Homo sapiens, UniProt P00918); assay: stopped-flow CO2 hydrase assay, hCA II; format: biochemical; conditions: stopped flow technique, mean from 3 different assays
T2 construct: made in house
Method: as §1

hCA IX = biological target: T3, hCA IX (Homo sapiens, UniProt Q16790); assay: stopped-flow CO2 hydrase assay, hCA IX; format: biochemical; conditions: for Ki: stopped flow technique, mean from 3 different assays; for Selectivity index (SI) I/IX: hCA IX over off-target hCA I; for Selectivity index (SI) II/IX: hCA IX over off-target hCA II
T3 construct: made in house
Method: as §1

hCA XII = biological target: T4, hCA XII (Homo sapiens, UniProt O43570); assay: stopped-flow CO2 hydrase assay, hCA XII; format: biochemical; conditions: for Ki: stopped flow technique, mean from 3 different assays; for Selectivity index (SI) I/XII: hCA XII over off-target hCA I; for Selectivity index (SI) II/XII: hCA XII over off-target hCA II
T4 construct: made in house
Method: as §1

CNS cancer (SNB-75) = assay: NCI single dose SRB screen, SNB-75; format: cell-based; conditions: Homo sapiens, SNB-75, 48 h, 10^−5 M single dose, read-out: GI% CNS cancer (SNB-75)
Method: (§2) Target compounds in series (A) and (B), were submitted to the National Cancer Institute (NCI) Developmental Therapeutic Program (www.dtp.nci.nih.gov), where they have been assessed, in vitro for their anticancer activity. Two series (A) and (B), were screened in a single dose (10 µM) versus full panel composed of 60 cancer cell lines, in accordance with protocol of drug evaluation branch, NCI, Bethesda. Sulforhodamine B (SRB) colorimetric assay was used to determine cell growth and viability,[40].
(§3) Protocol of Drug Evaluation Branch, NCI, Bethesda, was adopted in the antitumor assay. Assessment of cell growth and viability was carried out utilizing SRB assay and 48 h drug exposure protocol as previously reported,[40].

Renal cancer (UO-31) = assay: NCI single dose SRB screen, UO-31; format: cell-based; conditions: Homo sapiens, UO-31, 48 h, 10^−5 M single dose, read-out: GI% Renal cancer (UO-31)
Method: as §2, §3

[1] = system: Breast cancer (MDA-MB-468); assay: NCI single dose SRB screen, MDA-MB-468; format: cell-based; conditions: Homo sapiens, MDA-MB-468, 48 h, 10^−5 M single dose, 48 h, SRB; read-out: GI% Breast cancer (MDA-MB-468)
Method: as §2, §3

Leukemia (SR) = assay: NCI single dose SRB screen, SR; format: cell-based; conditions: 48 h, 10^−5 M single dose, read-out: GI% Leukemia (SR)
Method: as §2, §3

T4 sequence (O43570 25-354): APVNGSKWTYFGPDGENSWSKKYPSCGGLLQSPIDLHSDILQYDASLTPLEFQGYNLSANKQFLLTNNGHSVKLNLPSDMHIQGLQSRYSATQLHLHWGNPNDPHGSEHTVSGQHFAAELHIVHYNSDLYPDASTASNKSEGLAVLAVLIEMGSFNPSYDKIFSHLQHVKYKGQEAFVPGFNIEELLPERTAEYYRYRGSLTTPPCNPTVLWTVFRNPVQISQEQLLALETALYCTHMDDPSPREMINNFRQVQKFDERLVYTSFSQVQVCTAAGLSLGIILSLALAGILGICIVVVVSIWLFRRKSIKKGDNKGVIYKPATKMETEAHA
T1 sequence (P00915 whole entry): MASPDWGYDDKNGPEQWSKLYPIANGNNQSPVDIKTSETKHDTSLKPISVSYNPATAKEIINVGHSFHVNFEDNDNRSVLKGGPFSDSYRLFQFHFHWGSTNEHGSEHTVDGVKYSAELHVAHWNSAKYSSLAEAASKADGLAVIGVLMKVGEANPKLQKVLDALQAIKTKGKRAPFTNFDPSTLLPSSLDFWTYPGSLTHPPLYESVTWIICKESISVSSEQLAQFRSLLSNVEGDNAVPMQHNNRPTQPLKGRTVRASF

Row | SMILES | Ki (hCA I) [µM] | Ki (hCA II) [µM] | Ki (hCA IX) [µM] | Ki (hCA XII) [µM] | inhibition at 10 µM (CNS cancer (SNB-75)) [%] | inhibition at 10 µM (Renal cancer (UO-31)) [%] | inhibition at 10 µM [1] [%] | inhibition at 10 µM (Leukemia (SR)) [%] | melting point [°C] | Selectivity index (SI) I/IX (hCA IX) | Selectivity index (SI) II/IX (hCA IX) | Selectivity index (SI) I/XII (hCA XII) | Selectivity index (SI) II/XII (hCA XII)
1 | NC1=NC2(CCCCC2)N(c2ccc(S(=O)(=O)Nc3ccccn3)cc2)C(N)=N1 [Compound 6e, 4-(2,4-Diamino-1,3,5-triazaspiro[5.5]undeca-2,4-dien-1-yl)-N-(pyridin-2-yl)benzene-1-sulfonamide.HCl] | > 10 | > 10 | > 10 | > 10 | ≤ 10 | 11 | ≤ 10 | ≤ 10 |  |  |  |  | 
2 | CC1(C)N=C(N)N=C(N)N1c1ccc(S(=O)(=O)Nc2nccs2)cc1 [Compound 5c, 4-(4,6-Diamino-2,2-dimethyl-1,2-dihydro-1,3,5-triazin-1-yl)-N-(thiazol-2-yl)benzene-1-sulfonamide.HCl] | > 10 | > 10 | > 10 | > 10 | 35 | 11 | ≤ 10 | ≤ 10 |  |  |  |  | 
3 | CC1CCC2(CC1)N=C(N)N=C(N)N2c1ccc(S(N)(=O)=O)cc1 (centres unmarked) (as salt: HCl) [Compound 6c, 4-(2,4-Diamino-9-methyl-1,3,5-triazaspiro[5.5]undeca-2,4-dien-1-yl)benzene-1-sulfonamide.HCl] |  |  |  |  |  |  |  |  | 245 to 247 |  |  |  | 
4 | NC1=NC2(CCCCCC2)N(c2ccc(S(=O)(=O)Nc3ccccn3)cc2)C(N)=N1 (as salt: HCl) [Compound 6g, 4-(2,4-Diamino-1,3,5-triazaspiro[5.6]dodeca-2,4-dien-1-yl)-N-(pyridin-2-yl)benzene-1-sulfonamide.HCl] |  |  |  |  |  |  |  |  | 239 to 241 |  |  |  | 
5 | NC1=NC2(CCCC2)N(c2ccc(S(=O)(=O)Nc3nccs3)cc2)C(N)=N1 [Compound 6h, 4-{7,9-Diamino-6,8,10-triazaspiro[4.5]deca-7,9-dien-6-yl}-N-(1,3-thiazol-2-yl)benzene-1-sulfonamide.HCl] | > 10 | > 10 | > 10 | > 10 | ≤ 10 | 17 | ≤ 10 | ≤ 10 |  |  |  |  | 
6 | CC1CCC2(CC1)N=C(N)N=C(N)N2c1ccc(S(N)(=O)=O)cc1 (centres unmarked) [Compound 6c, 4-(2,4-Diamino-9-methyl-1,3,5-triazaspiro[5.5]undeca-2,4-dien-1-yl)benzene-1-sulfonamide.HCl] | 0.145 | 0.179 | 1.85 | 4.91 | 21 | 16 | ≤ 10 | ≤ 10 |  | 0.1 | 0.1 | 0.02 | 0.04
7 | NC1=NC2(CCCC2)N(c2ccc(S(N)(=O)=O)cc2)C(N)=N1 [Compound 6a, 4-(7,9-Diamino-6,8,10-triazaspiro[4.5]deca-7,9-dien-6-yl) benzene-1-sulfonamide HCl] | 0.628 | 0.832 | 1.06 | 5.34 | ≤ 10 | 19 | 18 | 13 |  | 0.6 | 0.8 | 0.1 | 0.2
8 | NC1=NC2(CCCC2)N(c2ccc(S(N)(=O)=O)cc2)C(N)=N1 (as salt: HCl) [Compound 6a, 4-(7,9-Diamino-6,8,10-triazaspiro[4.5]deca-7,9-dien-6-yl) benzene-1-sulfonamide HCl] |  |  |  |  |  |  |  |  | 240 to 241 |  |  |  | 
9 | CC1CCC2(CC1)N=C(N)N=C(N)N2c1ccc(S(=O)(=O)Nc2ccccn2)cc1 (centres unmarked) (as salt: HCl) [Compound 6f., 4-(2,4-Diamino-9-methyl-1,3,5-triazaspiro[5.5]undeca-2,4-dien-1-yl)-N-(pyridin-2-yl)benzene-1-sulfonamide.HCl] |  |  |  |  |  |  |  |  | 217 to 219 |  |  |  | 
10 | NC1=NC2(CCCCC2)N(c2ccc(S(N)(=O)=O)cc2)C(N)=N1 [Compound 6b, 4-(2,4-Diamino-1,3,5-triazaspiro[5.5]undeca-2,4-dien-1-yl)benzene-1-sulfonamide.HCl] | 0.437 | 0.915 | 1.16 | 4.85 | 28 | ≤ 10 | ≤ 10 | ≤ 10 |  | 0.4 | 0.8 | 0.1 | 0.2
11 | NC1=NC2(CCCCCC2)N(c2ccc(S(=O)(=O)Nc3ccccn3)cc2)C(N)=N1 [Compound 6g, 4-(2,4-Diamino-1,3,5-triazaspiro[5.6]dodeca-2,4-dien-1-yl)-N-(pyridin-2-yl)benzene-1-sulfonamide.HCl] | > 10 | > 10 | > 10 | > 10 | 33 | 14 | ≤ 10 | ≤ 10 |  |  |  |  | 
12 | CC1CCC2(CC1)N=C(N)N=C(N)N2c1ccc(S(=O)(=O)Nc2ccccn2)cc1 (centres unmarked) [Compound 6f., 4-(2,4-Diamino-9-methyl-1,3,5-triazaspiro[5.5]undeca-2,4-dien-1-yl)-N-(pyridin-2-yl)benzene-1-sulfonamide.HCl] | > 10 | > 10 | > 10 | > 10 | 23 | 11 | ≤ 10 | ≤ 10 |  |  |  |  | 
13 | NC1=NC2(CCCCC2)N(c2ccc(S(=O)(=O)Nc3nccs3)cc2)C(N)=N1 [Compound 6i, 4-(2,4-Diamino-1,3,5-triazaspiro[5.5]undeca-2,4-dien-1-yl)-N-(1,3-thiazol-2-yl)benzene-1-sulfonamide.HCl] | > 10 | > 10 | > 10 | > 10 | ≤ 10 | 14 | ≤ 10 | ≤ 10 |  |  |  |  | 
14 | CC1CCC2(CC1)N=C(N)N=C(N)N2c1ccc(S(=O)(=O)Nc2nccs2)cc1 (centres unmarked) [Compound 6j, 4-(2,4-Diamino-9-methyl-1,3,5-triazaspiro[5.5]undeca-2,4-dien-1-yl)-N-(1,3-thiazol-2-yl)benzene-1-sulfonamide.HCl] | > 10 | > 10 | > 10 | > 10 | 29 | 17 | ≤ 10 | ≤ 10 |  |  |  |  | 
15 | CC1(C)N=C(N)N=C(N)N1c1ccc(S(N)(=O)=O)cc1 [Compound 5a, 4-(4,6-Diamino-1-phenyl-1,2-dihydro-2,2-dimethyl-1,3,5-triazin-1-yl) benzene-1-sulfonamide HCl] | 0.884 | 0.913 | 0.135 | 3.52 | 29 | ≤ 10 | ≤ 10 | ≤ 10 |  | 6.7 | 6.8 | 0.3 | 0.2
16 | NC1=NC2(CCCC2)N(c2ccc(S(=O)(=O)Nc3ccccn3)cc2)C(N)=N1 [Compound 6d, 4-(7,9-Diamino-6,8,10-triazaspiro[4.5]deca-7,9-dien-6-yl}-N-(pyridin-2-yl)benzene-1-sulfonamide.HCl] | > 10 | > 10 | > 10 | > 10 | 30 | 12 | ≤ 10 | ≤ 10 |  |  |  |  | 
